In patent publication US20030010621A1, “NOVEL SYNTHESIS OF PHTHALOCYANINES BY MICROWAVE IRRADIATION” (priority 2001, published 2003):

Assay: Solubility of lab-made phthalocyanines in organic solvents
Format: physicochemical

SMILES	solubility (THF)	solubility (acetone)	solubility (methanol)	solubility (n-hexane)	solubility (toluene)
[Co+2].c1ccc2c(c1)-c1nc-2nc2[n-]c(nc3nc(nc4[n-]c(n1)c1ccccc41)-c1ccccc1-3)c1ccccc21 [CoPc]	◯ (slightly soluble (1 wt. % ˜ 3 wt. %))	◯ (slightly soluble (1 wt. % ˜ 3 wt. %))	Δ (hardly soluble (<1 wt. %))	Δ (hardly soluble (<1 wt. %))	◯ (slightly soluble (1 wt. % ˜ 3 wt. %))
[Ni+2].c1ccc2c(c1)-c1nc-2nc2[n-]c(nc3nc(nc4[n-]c(n1)c1ccccc41)-c1ccccc1-3)c1ccccc21 [NiPc]	◯ (slightly soluble (1 wt. % ˜ 3 wt. %))	◯ (slightly soluble (1 wt. % ˜ 3 wt. %))	Δ (hardly soluble (<1 wt. %))	Δ (hardly soluble (<1 wt. %))	◯ (slightly soluble (1 wt. % ˜ 3 wt. %))
